Test results reported in US6906059B2, “Pharmaceutical composition with protective action against oxidative/toxic substances, especially cardiotoxic substances” (Solvay Pharmaceuticals, priority 1999, dated 2005).

Columns and labels:
[1] = test system: rabbits with adriamycin-induced cardiomyopathy; test: Reduction of adriamycin-induced cardiac remodelling processes in the rabbit heart (heart/body weight ratio, hydroxyproline content); assay type: in vivo; settings: for Ratio of heart weights to body weight: X ± SEM, n = 8
Protocol: • A) The tests were carried out on rabbits of both sexes having an initial body weight of 2.1±0.2 kg. The animals were divided into 3 groups:
1. untreated animals (=control animals, n=20);
2. animals treated with adriamycin (+placebo instead of test substance, n=8);
3. animals treated with adriamycin and test substance (n=8). • The test substance used was (3S,2R′)-3-{1-[2′-(ethoxycarbonyl)-4′-phenyl-butyl]-cyclopentane-1-carbonylamino}-2,3,4,5-tetrahydro-2-oxo-1H-1-benzazepin-1-acetic acid, which is representative of the substances of Formula I usable according to the invention.
Groups 2 and 3 were administered 1 mg/kg adriamycin i.v. twice a week for 4 weeks. Group 3 of rabbits having adriamycin-induced cardiomyopathy was administered a daily oral dose of the test substance (30 mg/kg body weight) for 4 weeks, starting on the first day of adriamycin treatment, with their food. Once the 4 weeks had ended, the hearts were isolated and weighed. Then they were fixed with formalin for later biochemical investigations (hydroxyproline content of the heart tissue, measured with the HPLC amino acid analysis after Blankenship, D. T. et al., Aunal. Biochem. 178, 227-232, 1989 and Schuster, R., J. Chromatogr. 431, 271 -284, 1989). Both the increase in heart weight in relation to body weight and the hydroxyproline content in the heart tissue compared with normal values are indicators of remodelling processes taking place in the heart.

[2] = test system: rats with adriamycin-induced cardiomyopathy; test: Inhibition of the pro-oxidative action of adriamycin in rats (plasma α-tocopherol, lipid peroxides, ferroxidase activity); assay type: in vivo, male Wistar rats; settings: for Ferroxidase activity in plasma / Lipid peroxides (measured as malonic dialdehyde thiobarbituric acid adducts) in plasma / α-Tocopherol (Vitamin E) in plasma: X ± SEM
Protocol: The left-ventricular myocardial hydroxyproline concentration, which is a measurement of cardiac fibrous tissue growth, was less in the animals treated with test substance (group 3) than in the control animals treated with adriamycin (group 2). […] If the test substance was also administered in addition to adriamycin (group 3), the adriamycin-induced increase in the hydroxyproline content could be reduced by about 13% compared with animals treated with placebo (group 2). […] The animals were divided into 4 groups:
1. untreated animals (=control animals, n=19);
2. animals treated with adriamycin (+placebo instead of test substance, n=14);
3. animals treated with test substance (n=11);
4. animals treated with adriamycin and test substance (n=14).
The test substance used was (3S,2R′)-3-{1-[2′-(ethoxycarbonyl)-4′-phenyl-butyl]-cyclopentane-1-carbonylamino}-2,3,4,5-tetrahydro-2-oxo-1H-1-benzazepin-1-acetic acid, being representative of the substances of Formula I usable according to the invention.
The animals of groups 2 and 4 were administered 15 mg/kg adriamycin intraperitoneally over a period of two weeks. The animals of group 4 were administered 30 mg/kg of the test substance daily for two weeks with their food, starting with the first day of adriamycin treatment. The animals of group 3 were likewise administered 30 mg/kg of the test substance daily for two weeks with their food (but without adriamycin).
Once the two-weeks' treatment had ended, the animals were anaesthetised with pentobarbital (50 mg/kg i.p.) and venous blood samples were taken, from which plasma was obtained. The concentration of lipid-peroxides and the ferroxidase activity in the plasma was measured using the methods of Wong, S. H. Y. et al., Clin. Chem. 33, 214-220, 1987 or Johnson, D. A. et al., Clin. Chem. 13, 142-150, 1967. Furthermore, the α-tocopherol concentration in the plasma was measured using the method of Catignani, G. L. and Bieri, J. G., Clin. Chem. 29, 708-712, 1983.

[3] = adriamycin + test substance 30 mg/kg daily oral v. adriamycin + placebo, 4 weeks
[4] = Group 3: test substance 30 mg/kg daily with food for two weeks, no adriamycin, n = 11
[5] = Group 4: adriamycin 15 mg/kg i.p. + test substance 30 mg/kg daily, two weeks, n = 14
[6] = adriamycin + test substance v. adriamycin + placebo
[7] = group 4 v. group 2 (adriamycin + placebo)
[8] = test substance alone v. untreated
[9] = group 2 (adriamycin) v. group 1 (untreated)
[10] = Group 2: adriamycin 15 mg/kg i.p. over two weeks + placebo, n = 14
[11] = group 2 (adriamycin) v. group 1 (control)

`CCOC(=O)[C@H](CCc1ccccc1)CC1(C(=O)N[C@H]2CCc3ccccc3N(CC(=O)O)C2=O)CCCC1` [test substance, (3S,2R′)-3-{1-[2′-(ethoxycarbonyl)-4′-phenyl-butyl]-cyclopentane-1-carbonylamino}-2,3,4,5-tetrahydro-2-oxo-1H-1-benzazepin-1-acetic acid] was tested, and the Ratio of heart weights to body weight ([1]; Group 3: adriamycin 1 mg/kg i.v. twice a week + test substance 30 mg/kg daily oral, 4 weeks) was 2.79 ± 0.08 g/kg, the “% Effect of the test substance (group 3 v. 2) on hydroxyproline content of the heart” value [1, 3] was −13.3% and the “% Effect of the test substance (group 3 v. 2) on ratio of heart weights to body weight” value [1, 3] was −17.7%. For the same compound, the “Reduction of the adriamycin-induced increase in the heart/body weight ratio” value ([1]; group 3 v. group 2 (placebo)) was “about 18%”, the “Reduction of the adriamycin-induced increase in the hydroxyproline content” value ([1]; group 3 v. group 2 (placebo)) was “about 13%” and the “Ferroxidase activity in plasma” value [2, 4] was 0.2545 ± 0.0104 IU/l. The “Lipid peroxides (measured as malonic dialdehyde thiobarbituric acid adducts) in plasma” value (shortened to “Lipid peroxides … in plasma”) [2, 4] was 2.319 ± 0.086 µmol/L, the “α-Tocopherol (Vitamin E) in plasma” value [2, 4] was 657.8 ± 21.0 µg/dL and the “Ferroxidase activity in plasma” value [2, 5] was 0.2534 ± 0.0128^+ IU/l. For the same compound, the “Lipid peroxides … in plasma” value [2, 5] was 3.030 ± 0.235^+++ μmol/l, the “α-Tocopherol (Vitamin E) in plasma” value [2, 5] was 407.9 ± 33.0 µg/dL and the “% Effect of the test substance on plasma ferroxidase activity, Group 4 v. 2” value [2, 6] was −23.0%. The “% Effect of the test substance on plasma lipid peroxides, Group 4 v. 2” value [2, 6] was −32.3%, the “% Effect of the test substance on plasma α-tocopherol, Group 4 v. 2” value [2, 6] was “+20.6%” and the “Increase of α-tocopherol content in the plasma” value ([2]; group 3 (test substance) v. group 1 (control)) was “about 95%”. For the same compound, the “Increase of α-tocopherol content in the plasma” value ([2]; group 4 (adriamycin + test substance) v. group 2 (adriamycin + placebo)) was “about 21%”, the “Decrease of ferroxidase activity” value [2, 7] was 23% and the “Reduction of the adriamycin-induced increase in the concentration of lipid peroxides in the plasma” value [2, 7] was “about 32%”. For the same compound, the “% Effect of the test substance on plasma ferroxidase activity, Group 3 v. 1” value [2, 8] was −5.7%, the “% Effect of the test substance on plasma lipid peroxides, Group 3 v. 1” value [2, 8] was “+19.6%” and the “% Effect of the test substance on plasma α-tocopherol, Group 3 v. 1” value [2, 8] was “+95.2%”.
For `COc1cccc2c1C(=O)c1c(O)c3c(c(O)c1C2=O)C[C@@](O)(C(=O)CO)C[C@@H]3O[C@H]1C[C@H](N)[C@H](O)[C@H](C)O1` [adriamycin, reference compound], the Ratio of heart weights to body weight ([1]; Group 2: adriamycin 1 mg/kg i.v. twice a week for 4 weeks + placebo) was 3.39 ± 0.13 g/kg, the “Increase of heart/body weight ratio compared with untreated control group” value [1, 9] was “about 69%” and the “Increase of myocardial hydroxyproline content compared with untreated control group” value [1, 9] was “about 60%”. For the same compound, the “Lipid peroxides … in plasma” value [2, 10] was 4.476 ± 0.404 µmol/L, the “α-Tocopherol (Vitamin E) in plasma” value [2, 10] was 338.2 ± 28.0 µg/dL and the “Increase of concentration of lipid peroxides in the rat plasma” value [2, 11] was “about 131%”. The “Increase of total activity of the ferroxidase in the rat plasma” value [2, 11] was “about 22%”.
